Measured values reported in patent publication US5508295A, “Use of amino acyl amino propargyl diol compounds for treatment of glaucoma” (G. D. Searle & Co., priority 1994, dated 1996).
Non-standard residues stand in square brackets, D forms with d. Residues, ends and D or L forms follow the SMILES beside them. *: point of attachment. Sta = CC(C)C[C@H](N)[C@@H](O)CC(=O)O; Isovaleryl = CC(C)CC(=O)*

Assays:
human renin = biological target: T1, human renin (Homo sapiens, UniProt P00797); assay: Human Renin Inhibition in vitro (angiotensin I by radioimmunoassay); format: biochemical; settings: pH 7.4, two hours at 37° C.
T1 construct: purchased National Institute for Biological Standards, London
T1 sequence (P00797 67-406): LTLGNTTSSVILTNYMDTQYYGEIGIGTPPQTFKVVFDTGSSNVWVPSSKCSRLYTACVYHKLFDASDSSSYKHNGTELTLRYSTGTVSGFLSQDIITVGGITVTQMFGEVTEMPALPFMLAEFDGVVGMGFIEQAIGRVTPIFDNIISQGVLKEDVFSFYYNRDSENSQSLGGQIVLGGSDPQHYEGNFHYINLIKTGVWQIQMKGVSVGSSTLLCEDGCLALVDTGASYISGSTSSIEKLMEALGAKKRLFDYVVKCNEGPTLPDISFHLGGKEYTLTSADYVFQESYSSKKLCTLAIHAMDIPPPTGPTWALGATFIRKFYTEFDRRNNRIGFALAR
Experimental: Compounds of Formula I were evaluated as inhibitors of human renin in an in vitro assay, as follows: This human renin inhibition test has been previously described in detail [Papaioannou et al., Clinical and Experimental Hypertension, A7(9), 1243-1257 (1985)]. Human renin was obtained from the National Institute for Biological Standards, London. An incubation mixture was prepared containing the following components: in a total volume of 0.25 mL: 100 mM Tris-acetate buffer at pH 7.4, 25×10-6 Goldblatt units of renin, 0.05 mL of plasma from human volunteers taking oral contraceptives, 6.0 mM Na-EDTA, 2.4 mM phenylmethyl sulfonyl fluoride, 1.5 mM 8-hydroxyquinoline, 0.4 mg/mL bovine serum albumin (BSA), and 0.024 mg/mL neomycin sulfate. This mixture was incubated for two hours at 37° C. in the presence or absence of renin inhibitors. The produced angiotensin I was determined by radioimmunoassay (New England Nuclear kit). Test compounds to be assayed were dissolved in DMSO and diluted with 100 mM Tris-acetate buffer at pH 7.4 containing 0.5% BSA to the appropriate concentration. The final concentration of organic solvent in the reaction mixture was less than 1%. Control incubations at 37° C. were used to correct for effects of organic solvent on renin activity.

renin = settings: Umezawa et al, J. Antibiot. 1970; cited from earlier work
cathepsin D = settings: Umezawa et al, J. Antibiot. 1970; cited from earlier work
pepsin = settings: Umezawa et al, J. Antibiot. 1970; cited from earlier work
blood pressure = settings: after the injection of hog renin into nephrectomized rats; Gross et al, Science 1971; cited from earlier work

C#CC[C@H](O)[C@H](O)[C@H](CC1CCCCC1)NC(=O)[C@H](Cc1cscn1)NC(=O)[C@@H](CC(=O)N(C)CCN(C)C)Cc1ccccc1 [Example 1, N^1-[2-[[1S,1R*-(cyclohexylmethyl-2S*,3R*-dihydroxy-5-hexynyl]amino]-2-oxo-1R*-(4-thiazolylmethyl)ethyl]-N^4-[2-(dimethylamino)ethyl]-N^4-methyl-2S*-(phenylmethyl)butanediamide]
IC50 (human renin): 28 nM

CC(C)CC(=O)N[C@H](C(=O)N[C@H](C(=O)N[C@@H](CC(C)C)[C@@H](O)CC(=O)N[C@@H](C)C(=O)N[C@@H](CC(C)C)[C@@H](O)CC(=O)O)C(C)C)C(C)C [pepstatin] (Isovaleryl-VV[Sta]A[Sta]-OH)
inhibitor of aspartyl proteases: renin (renin): inhibitor of aspartyl proteases such as pepsin, cathepsin D and renin | inhibitor of aspartyl proteases: cathepsin D (cathepsin D): inhibitor of aspartyl proteases such as pepsin, cathepsin D | inhibitor of aspartyl proteases: pepsin (pepsin): inhibitor of aspartyl proteases such as pepsin | reduce blood pressure in vivo (blood pressure): found to reduce blood pressure in vivo
